Data set [1] deals with DNA topoisomerase 2-alpha (Homo sapiens) (UniProt P11388). The data set is described as follows: Binding affinity to nuclear export signal of topoisomerase 2alpha in human NCI-H929 cells assessed as potentiation of doxorubicin-induced apoptosis by measuring increase in cleaved caspase-3 levels at 25 uM pre-incubated for 20 hrs followed by addition of doxorubicin for 4 hrs. It is filed as cell-based.

Data set [2] shares this target. The data set is described as follows: Binding affinity to nuclear export signal of topoisomerase 2alpha in human RPMI8226 cells assessed as potentiation of doxorubicin-induced apoptosis by measuring increase in cleaved caspase-3 levels at 25 uM pre-incubated for 20 hrs followed by addition of doxorubicin for 4 hrs. In kind it is cell-based.
Data set [3] shares this target. Kind of data set: Binding affinity to nuclear export signal of topoisomerase 2alpha in human U266 cells assessed as potentiation of doxorubicin-induced apoptosis by measuring increase in cleaved caspase-3 levels at 25 uM pre-incubated for 20 hrs followed by addition of doxorubicin for 4 hrs. In kind it is cell-based.
The subject of data set [4] is NCI-H929. Kind of data set: Induction of apoptosis in human NCI-H929 cells assessed as increase in cleaved caspase-3 levels at 25 uM incubated for 20 hrs. It is filed as functional, cell-based.
Data set [5] concerns RPMI-8226. The data set is described as follows: Induction of apoptosis in human RPMI8226 cells assessed as increase in cleaved caspase-3 levels at 25 uM incubated for 20 hrs. In kind it is functional, cell-based.
Data set [6] relates to U-266. Kind of data set: Induction of apoptosis in human U266 cells assessed as increase in cleaved caspase-3 levels at 25 uM incubated for 20 hrs. In kind it is functional, cell-based.
Data set [7] addresses DNA topoisomerase II (Homo sapiens) (UniProt P11388+Q02880). The data set is described as follows: Inhibition of decatenation activity of human topoisomerase 2 using kinetoplast DNA up to 50 uM incubated for 30 mins by agarose gel electrophoresis. It is filed as protein assay.
Data set [8] deals with RPMI-8226. Kind of data set: Effect on Top2alpha protein levels in human RPMI8226 cells at 25 uM incubated for 20 hrs by Western blot analysis. It is filed as cell-based. The settings on record: rpmi-8226, 20 h. Background: In western blotting, separated proteins are transferred to a membrane and probed.
Data set [9] has as its target DNA topoisomerase 2-alpha (Homo sapiens) (UniProt P11388). Kind of data set: Inhibition of nuclear export signal of topoisomerase 2alpha in human NCI-H929 cells assessed as reduction in cytoplasmic localization of Top2alpha at 100 uM incubated for 24 hrs by Western blot analysis. In kind it is cell-based.
Data set [10] concerns the target Cellular tumor antigen p53 (Homo sapiens) (UniProt P04637). Kind of data set: Inhibition of p53 nuclear export in human NCI-H929 cells at 25 uM incubated for 20 hrs by Western blot analysis. It is filed as cell-based.
In data set [11] the target is DNA topoisomerase 2-alpha (Homo sapiens) (UniProt P11388). Kind of data set: Binding affinity to nuclear export signal of topoisomerase 2alpha in human WI38 cells assessed as potentiation of doxorubicin-induced apoptosis by measuring increase in cleaved caspase-3 levels at 25 uM pre-incubated for 20 hrs followed by addition of doxorubicin for 4 hrs. In kind it is cell-based.

Data set [12] has the same target. The data set is described as follows: Binding affinity to nuclear export signal of topoisomerase 2alpha in human Flow 2000 cells assessed as potentiation of doxorubicin-induced apoptosis by measuring increase in cleaved caspase-3 levels at 25 uM pre-incubated for 20 hrs followed by addition of doxorubicin for 4 hrs. It is filed as cell-based.
Data set [13] shares this target. The data set is described as follows: Binding affinity to nuclear export signal of topoisomerase 2alpha in human PBMC cells assessed as potentiation of doxorubicin-induced apoptosis by measuring increase in cleaved caspase-3 levels at 25 uM pre-incubated for 20 hrs followed by addition of doxorubicin for 4 hrs. It is filed as cell-based.
For data set [14] the target is unchanged. The data set is described as follows: Binding affinity to nuclear export signal of topoisomerase 2alpha in human KG1a cells assessed as potentiation of doxorubicin-induced apoptosis by measuring increase in cleaved caspase-3 levels at 25 uM pre-incubated for 20 hrs followed by addition of doxorubicin for 4 hrs. In kind it is cell-based.
The target is the same in data set [15]. Kind of data set: Binding affinity to nuclear export signal of topoisomerase 2alpha in human HL60 cells assessed as potentiation of doxorubicin-induced apoptosis by measuring increase in cleaved caspase-3 levels at 25 uM pre-incubated for 20 hrs followed by addition of doxorubicin for 4 hrs. In kind it is cell-based.
The target is the same in data set [16]. The data set is described as follows: Binding affinity to nuclear export signal of topoisomerase 2alpha in human MCF7 cells assessed as potentiation of doxorubicin-induced apoptosis by measuring increase in cleaved caspase-3 levels at 25 uM pre-incubated for 20 hrs followed by addition of doxorubicin for 4 hrs. It is filed as cell-based.
For data set [17] the target is unchanged. The data set is described as follows: Inhibition of nuclear export signal of topoisomerase 2alpha in human NCI-H929 cells assessed as reduction in Top2alpha binding to CRM1 at 25 uM incubated for 20 hrs by Western blot analysis and co-immunoprecipitation analysis. It is filed as cell-based.
For data set [18] the target is unchanged. The data set is described as follows: Inhibition of nuclear export signal of topoisomerase 2alpha in human NCI-H929 cells assessed as increase in nuclear localization of Top2alpha at 50 uM incubated for 2 hrs by Western blot analysis. In kind it is cell-based.
Data set [19] addresses Exportin-1 (Homo sapiens) (UniProt O14980). Kind of data set: Inhibition of CRM1 in human NCI-H929 cells assessed as increase in nuclear localization of Top2alpha at 50 uM incubated for 2 hrs by Western blot analysis. It is filed as cell-based.

The source made the active and inactive calls. No cut-off for these calls is given here.

Sequence of DNA topoisomerase 2-alpha (Homo sapiens) (P11388 whole entry): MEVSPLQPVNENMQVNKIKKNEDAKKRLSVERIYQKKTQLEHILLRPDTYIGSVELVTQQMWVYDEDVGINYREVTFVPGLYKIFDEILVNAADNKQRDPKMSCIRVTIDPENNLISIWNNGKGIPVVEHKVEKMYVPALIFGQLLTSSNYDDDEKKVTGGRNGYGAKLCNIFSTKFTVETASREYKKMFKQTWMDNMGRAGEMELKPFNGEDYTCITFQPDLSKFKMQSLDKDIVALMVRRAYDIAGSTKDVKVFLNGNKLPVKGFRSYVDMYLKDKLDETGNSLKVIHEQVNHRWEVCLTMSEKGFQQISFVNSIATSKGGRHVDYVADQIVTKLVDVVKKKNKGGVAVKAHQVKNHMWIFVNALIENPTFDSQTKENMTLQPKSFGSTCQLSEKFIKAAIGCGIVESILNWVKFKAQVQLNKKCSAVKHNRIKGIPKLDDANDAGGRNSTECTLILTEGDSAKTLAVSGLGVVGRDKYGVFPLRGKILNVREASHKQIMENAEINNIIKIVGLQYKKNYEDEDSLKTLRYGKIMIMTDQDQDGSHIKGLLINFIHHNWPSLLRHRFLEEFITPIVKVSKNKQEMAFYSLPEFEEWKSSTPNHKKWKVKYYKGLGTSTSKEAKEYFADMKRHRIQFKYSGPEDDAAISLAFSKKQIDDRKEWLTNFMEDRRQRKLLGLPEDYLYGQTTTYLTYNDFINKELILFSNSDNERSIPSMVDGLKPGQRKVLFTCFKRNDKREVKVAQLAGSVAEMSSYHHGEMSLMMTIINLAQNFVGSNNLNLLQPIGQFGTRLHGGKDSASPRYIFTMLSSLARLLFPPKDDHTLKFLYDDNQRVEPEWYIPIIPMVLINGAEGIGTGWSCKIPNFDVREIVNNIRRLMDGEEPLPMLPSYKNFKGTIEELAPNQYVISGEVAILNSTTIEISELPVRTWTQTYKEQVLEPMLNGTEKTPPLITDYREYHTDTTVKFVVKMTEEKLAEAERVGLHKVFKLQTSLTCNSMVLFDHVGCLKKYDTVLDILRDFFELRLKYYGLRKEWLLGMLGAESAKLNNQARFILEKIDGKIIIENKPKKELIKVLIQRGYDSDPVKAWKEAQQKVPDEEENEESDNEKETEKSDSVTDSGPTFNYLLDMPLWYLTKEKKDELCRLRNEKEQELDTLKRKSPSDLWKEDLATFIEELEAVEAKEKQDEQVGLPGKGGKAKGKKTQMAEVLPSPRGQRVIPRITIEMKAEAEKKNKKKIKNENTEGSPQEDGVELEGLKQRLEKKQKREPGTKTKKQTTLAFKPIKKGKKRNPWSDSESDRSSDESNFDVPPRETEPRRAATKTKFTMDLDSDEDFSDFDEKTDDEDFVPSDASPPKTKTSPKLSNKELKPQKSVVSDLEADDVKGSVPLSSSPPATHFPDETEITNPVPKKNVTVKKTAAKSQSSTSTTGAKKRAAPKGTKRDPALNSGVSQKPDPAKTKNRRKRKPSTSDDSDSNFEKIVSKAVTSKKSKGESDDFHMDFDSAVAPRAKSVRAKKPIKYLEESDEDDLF
Sequence of Cellular tumor antigen p53 (Homo sapiens) (P04637 whole entry, looked up): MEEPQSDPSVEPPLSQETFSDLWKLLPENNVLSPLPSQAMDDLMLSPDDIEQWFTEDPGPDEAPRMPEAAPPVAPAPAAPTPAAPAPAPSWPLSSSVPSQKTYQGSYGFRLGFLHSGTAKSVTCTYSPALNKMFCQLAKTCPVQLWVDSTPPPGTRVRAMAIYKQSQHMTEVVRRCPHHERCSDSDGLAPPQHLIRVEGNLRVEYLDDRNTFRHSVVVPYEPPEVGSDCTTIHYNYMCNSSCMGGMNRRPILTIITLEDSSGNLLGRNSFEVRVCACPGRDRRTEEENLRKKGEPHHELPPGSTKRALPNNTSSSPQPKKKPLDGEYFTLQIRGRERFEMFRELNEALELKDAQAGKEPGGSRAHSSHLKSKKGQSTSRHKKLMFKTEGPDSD
Sequence of Exportin-1 (Homo sapiens) (O14980 whole entry): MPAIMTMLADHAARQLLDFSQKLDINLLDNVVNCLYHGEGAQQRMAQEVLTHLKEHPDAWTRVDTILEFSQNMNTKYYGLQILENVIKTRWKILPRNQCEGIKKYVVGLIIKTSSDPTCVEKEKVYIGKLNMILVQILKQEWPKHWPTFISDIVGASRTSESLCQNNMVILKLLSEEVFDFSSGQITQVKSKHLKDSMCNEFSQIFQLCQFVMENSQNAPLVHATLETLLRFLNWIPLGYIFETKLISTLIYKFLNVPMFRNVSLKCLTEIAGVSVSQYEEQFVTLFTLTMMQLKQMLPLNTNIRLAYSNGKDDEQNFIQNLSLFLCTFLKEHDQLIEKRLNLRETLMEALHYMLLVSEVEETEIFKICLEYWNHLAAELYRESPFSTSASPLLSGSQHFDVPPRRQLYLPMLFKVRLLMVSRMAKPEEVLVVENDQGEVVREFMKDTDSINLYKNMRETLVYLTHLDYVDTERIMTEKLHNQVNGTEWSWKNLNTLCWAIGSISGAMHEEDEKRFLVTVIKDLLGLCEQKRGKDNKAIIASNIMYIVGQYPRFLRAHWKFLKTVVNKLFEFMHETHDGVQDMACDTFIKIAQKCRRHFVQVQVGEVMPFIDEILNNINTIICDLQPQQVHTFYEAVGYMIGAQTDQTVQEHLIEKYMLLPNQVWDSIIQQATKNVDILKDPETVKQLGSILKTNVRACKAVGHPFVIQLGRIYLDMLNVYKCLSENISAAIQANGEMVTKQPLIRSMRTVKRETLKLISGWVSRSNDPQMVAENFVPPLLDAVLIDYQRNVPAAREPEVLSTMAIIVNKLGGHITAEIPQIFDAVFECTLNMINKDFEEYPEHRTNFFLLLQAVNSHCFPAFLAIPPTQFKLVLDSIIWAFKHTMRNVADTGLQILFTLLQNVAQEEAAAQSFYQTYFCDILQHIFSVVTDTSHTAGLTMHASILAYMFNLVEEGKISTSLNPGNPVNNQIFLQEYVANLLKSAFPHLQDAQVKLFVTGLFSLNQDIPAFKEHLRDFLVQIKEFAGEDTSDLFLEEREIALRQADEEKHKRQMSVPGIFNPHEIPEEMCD

Consider `O=C(Nc1ccc(C2=NCCN2)cc1)c1ccc(C(=O)Nc2ccc(C3=NCCN3)cc2)c([N+](=O)[O-])c1`, for which the outcome in data set [1], in data set [2] and in data set [3] was Active. Also, the outcome in data set [4], in data set [5] and in data set [6] was inactive. Also, the inhibition result in [7], in [10], in data set [11], in [12], in data set [13] and in [14] was “inactive” in each case. Also, in [15], the inhibition entry is “inactive”. Further, the Activity result in [8] is on record as “Non-Toxic”. Besides, the inhibition result in [9] and in [16] was “Active” in each case.

On to `O=C(C[N+]12CN3CN(CN(C3)C1)C2)c1ccc(Br)cc1`, for which, in data set [9], the inhibition entry is “inactive”.

Regarding `Clc1cc(Cl)c(C[N+]23CN4CN(CN(C4)C2)C3)cc1Cl`, the result in [1], in data set [2] and in [3] was Active. Besides, the result in data set [4], in data set [5] and in data set [6] was inactive. Further, the inhibition result in data set [7], in data set [9], in [10], in data set [11], in [12] and in [13] was “inactive” throughout. Also, the inhibition result in data set [14] and in [15] was “inactive” throughout. In addition, in data set [8], the Activity entry is listed as “Non-Toxic”. In addition, the inhibition result in data set [16] was “Active”.

Take `O=C1c2ccccc2C(=O)C1C(=O)C(c1ccccc1)c1ccccc1` [DIPHENADIONE]: the outcome in data set [1], in [2] and in data set [3] was Active. Also, the result in [4], in [5] and in [6] was inactive. Moreover, the inhibition result in data set [7], in [10], in data set [11], in data set [12], in data set [13] and in data set [14] was “inactive” each time. In addition, the inhibition entry in data set [15] was “inactive”. Besides, the Activity entry in data set [8] is “Non-Toxic”. In addition, the inhibition entry in data set [17], in data set [18], in data set [9] and in [16] was “Active” each time.

Turning to `COCN1CCC2N(COC)CCC3N(COC)CCC1N23` (stereo unspecified), the result in [1], in data set [2] and in data set [3] was Active. Moreover, the outcome in data set [4], in data set [5] and in data set [6] was inactive.

With `Brc1ccc(C[N+]23CN4CN(CN(C4)C2)C3)cc1`, the outcome in [1], in data set [2] and in [3] was Active. For the same compound, the result in data set [4], in data set [5] and in data set [6] was inactive. The inhibition entry in data set [7], in data set [11], in data set [12], in [13], in data set [14] and in data set [15] was “inactive” each time. In addition, the Activity entry in [8] is recorded as “Non-Toxic”. The inhibition entry in [9], in [10] and in data set [16] was “Active” throughout.

As to `C/C=C/[C@@H]1O[C@H]([C@H](O)/C=C/C=C/C[C@@H](C)/C=C(\C=C\[C@H]2CC=CC(=O)O2)CC)C[C@@H](O)[C@@H]1C`, the inhibition entry in data set [19] is “Active”.

`C1CN2C(=N1)N1CCN=C1N1CCN=C21`: the result in data set [1], in data set [2] and in data set [3] was Active. Moreover, the outcome in [4], in [5] and in [6] was inactive.

As for `c1ccc(C2NNC(c3ccccc3)NN2)cc1` (stereo unspecified), the result in data set [1], in data set [2] and in data set [3] was Active. For the same compound, the outcome in data set [4], in data set [5] and in data set [6] was inactive.

The values are drawn from ChEMBL document CHEMBL4421723, “Novel drug targets to overcome de novo drug-resistance in multiple myeloma” (2013).
